Patent EP2161024A1, “Combination product for the treatment of cancer” (Universitätsklinikum Hamburg-Eppendorf, priority 2008, dated 2010)

How the values were obtained:
Zelllinie H82 = experiment: XTT cell proliferation (growth) test with H82 cells; settings: for Zellwachstum: single agent (alleinige Gabe), H82 cells, Figur 7
OH1-Zellen = experiment: XTT cell proliferation (growth) test with OH1 cells; settings: single agent (alleinige Gabe), 1 µM to 0,001 µM, 72 h incubation, Figur 2
Zelllinie H69 = experiment: XTT cell proliferation (growth) test with H69 cells; format: cell-based; settings: single agent (alleinige Gabe), Figuren 5a, 5b

Structure (SMILES) | inhibition at 5 µM (Zelllinie H82; Homo sapiens, NCI-H82, read-out: Hemmung der Proliferation) | Zellwachstum (Zelllinie H82) | Wachstum der OH1-Zellen (OH1-Zellen) | Wachstum der Zellen (Zelllinie H69)
COc1ccc(CCN2CCC(Nc3nc4ccccc4n3Cc3ccc(F)cc3)CC2)cc1 [Astemizol, 1-[(4-Fluorphenyl)methyl]-N-[1-[2-(4-methoxyphenyl)ethyl]-4-piperidyl]benzoimidazol-2-amin] | 50% | kaum Auswirkungen auf das Zellwachstum | nicht zu einer Verringerung des Wachstums | nicht zu einer Verringerung des Wachstums
CC(C)c1c(C(=O)Nc2ccccc2)c(-c2ccccc2)c(-c2ccc(F)cc2)n1CC[C@@H](O)C[C@@H](O)CC(=O)O [Atorvastatin, (3R,5R)-7-[2-(4-Fluorphenyl)-5-isopropyl-3-phenyl-4-(phenylcarbamoyl)pyrrol-1-yl]-3,5-dihydroxyheptansäure] | – | kaum Auswirkungen auf das Zellwachstum | nicht zu einer Verringerung des Wachstums | nicht zu einer Verringerung des Wachstums
CCC(C)C(=O)OC1CC(C)C=C2C=CC(C)C(CCC3CC(O)CC(=O)O3)C21 (stereo not drawn) [Lovastatin, [8-[2-(4-hydroxy-6-oxo-oxan-2-yl)ethyl]-3,7-dimethyl-1,2,3,7,8,8a-hexahydronaphthalen-1-yl]-2-methylbutanoat] | – | kaum Auswirkungen auf das Zellwachstum | nicht zu einer Verringerung des Wachstums | –
